Drawing on PubChem BioAssay (NCI), this text covers GI50 and TGI for ten compounds.

Structures are written as SMILES.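 96-well plates; 48 h exposure; 5 concentrations. Endpoints by linear interpolation between flanking doses. Not reached: highest tested concentration assigned. GI50: concentration for 50% inhibition of growth. Definition used: TGI = concentration required for complete inhibition of growth.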 A value given as a limit tells only on which side of the number the result lay.

Some test systems named below: M14 melanoma; SNB-19 CNS; DU-145 prostate; MOLT-4 leukemia; MDA-MB-435; UACC-257 melanoma; HS 578T breast; RPMI-8226 leukemia; T-47D breast; UO-31 renal.
Holding throughout (experiment): NCI tumour cell line growth inhibition, 48 h

`O=S1(=O)N(Cc2ccccc2)[C@@H](Cc2ccccc2)C2O[C@H]2[C@H](Cc2ccccc2)N1Cc1ccccc1` (some centres not stated): the GI50 was greater than 7.5 µM in the test with M14 melanoma; greater than 7.5 µM in the test with SNB-19 CNS; greater than 7.5 µM with DU-145 prostate; 4.12 µM in the test with MOLT-4 leukemia; greater than 7.5 µM in the test with MDA-MB-435; 2.89 µM in the test with UACC-257 melanoma. In addition, the GI50 is greater than 7.5 µM with HS 578T breast, 4.92 µM with RPMI-8226 leukemia, 6.81 µM with T-47D breast and greater than 7.5 µM with UO-31 renal. Also, the TGI in the test with M14 melanoma, in the test on SNB-19 CNS, in the test on DU-145 prostate, with MOLT-4 leukemia, with MDA-MB-435 and with UACC-257 melanoma was greater than 7.5 µM throughout. Moreover, the TGI in the test with HS 578T breast, with RPMI-8226 leukemia, in the test with T-47D breast and with UO-31 renal was greater than 7.5 µM in each case.
Consider `C[C@@H]1COCCN1c1nc(-c2cnc(N)cc2C(F)F)nc(N2[C@H](C)COC[C@@H]2C)n1`, for which the GI50 in the test with M14 melanoma is 0.3 µM; in the test on SNB-19 CNS, 0.405 µM; in the test on DU-145 prostate, 0.336 µM; in the test with MOLT-4 leukemia, 0.295 µM; with MDA-MB-435, 0.321 µM; with UACC-257 melanoma it was 0.323 µM. Moreover, the GI50 with HS 578T breast was 0.128 µM; in the test with RPMI-8226 leukemia, 0.174 µM; with T-47D breast, 0.0422 µM; in the test with UO-31 renal it was 0.0575 µM. In addition, the TGI in the test on M14 melanoma was 11.7 µM; in the test with SNB-19 CNS, 14.4 µM; in the test on DU-145 prostate, 14.5 µM; in the test with MOLT-4 leukemia, 9.15 µM; in the test with MDA-MB-435 it was 10.6 µM; with UACC-257 melanoma it was 8.05 µM. Besides, the TGI with HS 578T breast worked out at 0.611 µM; in the test on RPMI-8226 leukemia it was 4.28 µM; in the test with T-47D breast, 0.644 µM; with UO-31 renal, 11 µM.
As for `CCCCCCOc1ccc(/C=N/NC(N)=S)cc1`, the GI50 in the test with M14 melanoma was 2.54 µM; in the test with SNB-19 CNS, 12.3 µM; with DU-145 prostate, 7.26 µM; in the test on MOLT-4 leukemia it was 0.432 µM; with MDA-MB-435 it was 1.84 µM; in the test on UACC-257 melanoma it was 3.5 µM. In addition, the GI50 in the test with HS 578T breast was 3.16 µM; with RPMI-8226 leukemia it was 1.36 µM; with T-47D breast, 2.39 µM; in the test on UO-31 renal it was 0.822 µM. Besides, the TGI in the test on M14 melanoma was 12.1 µM; with SNB-19 CNS, greater than 100 µM; with DU-145 prostate it was greater than 100 µM; in the test on MOLT-4 leukemia, 5.26 µM; with MDA-MB-435 it was 7.56 µM; in the test with UACC-257 melanoma, 27.8 µM. Further, the TGI with HS 578T breast is 15 µM; in the test with RPMI-8226 leukemia, 4.41 µM; with T-47D breast, 18.2 µM; in the test on UO-31 renal, 3.66 µM.
As to `O=c1[nH]cnc2c1nnn2C1OC(CO)C(O)C1O` (configuration not stated), the GI50 with M14 melanoma is 1.84 µM; in the test on SNB-19 CNS, 19.6 µM; with DU-145 prostate, 0.548 µM; with MOLT-4 leukemia, 2.44 µM; with MDA-MB-435, 3.51 µM; with UACC-257 melanoma it was 12.3 µM. For the same compound, the GI50 in the test with HS 578T breast is 4.27 µM; with RPMI-8226 leukemia it was 1.33 µM; in the test on T-47D breast it was 0.736 µM; in the test on UO-31 renal, 2.75 µM. Moreover, the TGI in the test on M14 melanoma was greater than 56.2 µM; with SNB-19 CNS, greater than 100 µM; in the test on DU-145 prostate, 14 µM; in the test on MOLT-4 leukemia, greater than 100 µM; in the test on MDA-MB-435, greater than 100 µM; in the test on UACC-257 melanoma it was greater than 100 µM. The TGI with HS 578T breast is 69.8 µM; in the test with RPMI-8226 leukemia, 21.5 µM; in the test with T-47D breast it was greater than 100 µM; in the test on UO-31 renal, greater than 100 µM.
With `CC(=N\O)/C(C)=N/O.CC(=N\O)/C(C)=N/O.CC(=N\O)/C(C)=N/O.CC(=N\O)/C(C)=N/O.[Cu].[Cu]`, the GI50 was 18.9 µM in the test with M14 melanoma; 19.7 µM with SNB-19 CNS; 56.8 µM in the test on DU-145 prostate; 19.9 µM in the test on MOLT-4 leukemia; 18.5 µM with MDA-MB-435; 20.2 µM in the test on UACC-257 melanoma. In addition, the GI50 with HS 578T breast was 29.6 µM; in the test on RPMI-8226 leukemia, 27.1 µM; in the test on T-47D breast, 18.4 µM; in the test on UO-31 renal, 13.4 µM. Moreover, the TGI was 34.7 µM with M14 melanoma; 34.5 µM in the test on SNB-19 CNS; greater than 100 µM with DU-145 prostate; 47.4 µM with MOLT-4 leukemia; 33.7 µM with MDA-MB-435; 34.5 µM in the test on UACC-257 melanoma. The TGI in the test with HS 578T breast was found to be 65.9 µM; with RPMI-8226 leukemia, 63.7 µM; in the test on T-47D breast, 33.7 µM; in the test on UO-31 renal, 27.3 µM.
Consider `CN(C)c1ccc(C(=O)c2ccc(N(C)C)c(N)c2)cc1N`, for which the GI50 in the test on M14 melanoma was 1.67 µM; in the test on SNB-19 CNS, 16.7 µM; in the test with DU-145 prostate, 5.32 µM; with MOLT-4 leukemia, 2.76 µM; in the test on MDA-MB-435, 0.422 µM; in the test with UACC-257 melanoma it was greater than 100 µM. In addition, the GI50 with HS 578T breast is 1.75 µM; in the test on RPMI-8226 leukemia it was 1.33 µM; in the test with T-47D breast, 4.3 µM; in the test on UO-31 renal, 4.02 µM. In addition, the TGI is 9.74 µM in the test with M14 melanoma; greater than 39.3 µM in the test on SNB-19 CNS; 28.1 µM in the test with DU-145 prostate; greater than 57.6 µM with MOLT-4 leukemia; 1.25 µM in the test with MDA-MB-435; greater than 100 µM with UACC-257 melanoma. Further, the TGI is greater than 21.2 µM with HS 578T breast, greater than 100 µM in the test on RPMI-8226 leukemia, greater than 46.1 µM in the test with T-47D breast and greater than 67.7 µM with UO-31 renal.
Consider `CN(C)C(=S)NN=C(c1ccccn1)c1ccccn1`, for which the GI50 was less than 0.0147 µM in the test on M14 melanoma; 3.13 µM with SNB-19 CNS; 0.232 µM in the test on DU-145 prostate; less than 0.01 µM in the test with MOLT-4 leukemia; 0.076 µM with MDA-MB-435; less than 0.012 µM with UACC-257 melanoma. For the same compound, the GI50 with UO-31 renal was less than 0.0184 µM. The TGI in the test on M14 melanoma is 0.349 µM; in the test with SNB-19 CNS it was greater than 100 µM; in the test on DU-145 prostate, greater than 33.7 µM; with MOLT-4 leukemia, 2.15 µM; with MDA-MB-435, 16.7 µM; with UACC-257 melanoma, 2.51 µM. Also, the TGI with HS 578T breast is greater than 55.4 µM; in the test with RPMI-8226 leukemia, greater than 100 µM; in the test with T-47D breast it was greater than 44.9 µM; with UO-31 renal it was 14.1 µM.
`COc1cc2c(c(OC)c1OC)-c1ccc(NNC(=S)N(Cc3cccc(C[N+](Cc4cccc(CNC56CC7CC(CC(C7)C5)C6)c4)(Cc4cccc(CNC56CC7CC(CC(C7)C5)C6)c4)Cc4cccc(CN(C(=S)NNc5ccc6c(cc5=O)[C@@H](NC(C)=O)CCc5cc(OC)c(OC)c(OC)c5-6)C56CC7CC(CC(C7)C5)C6)c4)c3)C34CC5CC(CC(C5)C3)C4)c(=O)cc1[C@@H](NC(C)=O)CC2` (some centres not stated): the GI50 is 0.822 µM in the test on M14 melanoma; 1.65 µM with SNB-19 CNS; 2.46 µM in the test with DU-145 prostate; 0.562 µM with MOLT-4 leukemia; 0.779 µM in the test with MDA-MB-435; 4.51 µM with UACC-257 melanoma. Besides, the GI50 is 1.22 µM in the test with HS 578T breast, 0.757 µM in the test on RPMI-8226 leukemia, 1.83 µM with T-47D breast and 2.16 µM in the test on UO-31 renal. Also, the TGI in the test on M14 melanoma was found to be 2.26 µM; with SNB-19 CNS, 6.2 µM; in the test on DU-145 prostate, 7.1 µM; in the test with MOLT-4 leukemia, 1.93 µM; with MDA-MB-435 it was 3.5 µM; in the test on UACC-257 melanoma, 10.3 µM. Also, the TGI in the test with HS 578T breast came to 6.76 µM; with RPMI-8226 leukemia it was 1.76 µM; in the test on T-47D breast, 9.4 µM; in the test on UO-31 renal, 7.2 µM.
On to `COc1ccc(Nc2ccnc(NCCNc3ccnc4cc(Cl)ccc34)n2)cc1`, for which the GI50 with M14 melanoma was 1.46 µM; in the test with SNB-19 CNS it was 2.86 µM; with DU-145 prostate, 5.03 µM; with MOLT-4 leukemia, 3.46 µM; in the test with MDA-MB-435 it was 1.5 µM; in the test with UACC-257 melanoma, 1.97 µM. In addition, the GI50 with HS 578T breast was 2 µM; with RPMI-8226 leukemia it was 1.55 µM; with T-47D breast, 1.61 µM; in the test on UO-31 renal, 1.5 µM. Moreover, the TGI in the test with M14 melanoma was determined as 3.41 µM; in the test on SNB-19 CNS, 12 µM; with DU-145 prostate it was 17.6 µM; with MOLT-4 leukemia, 16.2 µM; in the test with MDA-MB-435, 2.9 µM; in the test with UACC-257 melanoma, 4.25 µM. In addition, the TGI was 5.91 µM with HS 578T breast, 4.84 µM in the test with RPMI-8226 leukemia, 5.72 µM in the test on T-47D breast and 3.7 µM in the test with UO-31 renal.
For `Nc1nc2c(c3ncccc13)C(c1ccc(Cl)c(Cl)c1)Cc1ncccc1-2` (configuration not stated), the GI50 was 3.2 µM in the test on M14 melanoma; 3.77 µM with SNB-19 CNS; 3.6 µM in the test on DU-145 prostate; 3.3 µM in the test with MOLT-4 leukemia; 0.867 µM in the test on MDA-MB-435; 13.2 µM with UACC-257 melanoma. In addition, the GI50 was 3.62 µM with HS 578T breast, 3.81 µM in the test with RPMI-8226 leukemia, 2.39 µM in the test with T-47D breast and 4.99 µM with UO-31 renal. For the same compound, the TGI is 12.3 µM with M14 melanoma; 14.4 µM with SNB-19 CNS; 12.5 µM in the test with DU-145 prostate; 15.2 µM in the test with MOLT-4 leukemia; 2.95 µM with MDA-MB-435; 26.4 µM in the test with UACC-257 melanoma. Also, the TGI in the test on HS 578T breast was found to be 19.2 µM; in the test with RPMI-8226 leukemia, 34 µM; in the test with T-47D breast it was 13.4 µM; in the test with UO-31 renal, 22 µM.
